Assays:
Assay in all cases: relative viability (nuclei count vs DMSO), 5 days (fraction); higher = more cells survive
[1] = compound: CC(C)(C)c1cc(NC(=O)Nc2ccc(-c3cn4c(n3)sc3cc(OCCN5CCOCC5)ccc34)cc2)no1 [Quizartinib] + CS(=O)(=O)CCNCc1ccc(-c2ccc3ncnc(Nc4ccc(OCc5cccc(F)c5)c(Cl)c4)c3c2)o1 [Lapatinib] (partner 2 µM)
Procedure, shortened: (§1)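 Relative viability equals treated-well nuclei counts divided by vehicle-well nuclei counts. Counts came from 4× images of lung cancer cell lines grown in 1536-well plates for 5 days after pin-tool dosing on the day after seeding. Dosing used one drug alone or a fixed anchor-drug dose plus five library-drug doses (not always all listed) in √10 steps, and values are medians of duplicate plates.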

[2] = compound: COCC[n+]1c2c(n(Cc3cnccn3)c1C)C(=O)c1ccccc1C2=O [YM155] + O=C(c1cc(Cc2n[nH]c(=O)c3ccccc23)ccc1F)N1CCN(C(=O)C2CC2)CC1 [Olaparib] (partner 8 µM)
Procedure, shortened: as §1

[3] = compound: CC(C)(C)c1cc(NC(=O)Nc2ccc(-c3cn4c(n3)sc3cc(OCCN5CCOCC5)ccc34)cc2)no1 [Quizartinib] + Cc1nc(Nc2ncc(C(=O)Nc3c(C)cccc3Cl)s2)cc(N2CCN(CCO)CC2)n1 [Dasatinib] (partner 0.075 µM)
Procedure, shortened: as §1

[4] = compound: COCC[n+]1c2c(n(Cc3cnccn3)c1C)C(=O)c1ccccc1C2=O [YM155] + C[C@@H](Oc1cc(-c2cnn(C3CCNCC3)c2)cnc1N)c1c(Cl)ccc(F)c1Cl [Crizotinib] (partner 1 µM)
Procedure, shortened: as §1

Row | Cell Line | relative viability ([1]; first compound 0.001 µM) | relative viability ([1]; first compound 0.003162 µM) | relative viability ([1]; first compound 0.01 µM) | relative viability ([1]; first compound 0.03162 µM) | relative viability ([1]; first compound 0.1 µM) | relative viability ([2]; first compound 0.002 µM) | relative viability ([2]; first compound 0.006325 µM) | relative viability ([2]; first compound 0.02 µM) | relative viability ([2]; first compound 0.06325 µM) | relative viability ([3]; first compound 0.003162 µM) | relative viability ([3]; first compound 0.01 µM) | relative viability ([3]; first compound 0.03162 µM) | relative viability ([3]; first compound 0.1 µM) | relative viability ([4]; first compound 0.002 µM) | relative viability ([4]; first compound 0.006325 µM) | relative viability ([4]; first compound 0.02 µM) | relative viability ([4]; first compound 0.06325 µM) | relative viability ([3]; first compound 0.001 µM)
1 | NCI-H1792 | 0.796 | 0.853 | 0.969 | 0.866 | 0.932 | 0.382 | 0.253 | 0.502 | 0.454 | 0.742 | 0.84 | 0.658 | 0.836 | 1 | 1.05 | 0.994 | 0.984 | 
2 | NCI-H1915 | 0.939 | 0.931 | 0.938 | 0.965 | 1.04 | 0.26 | 0.259 | 0.278 | 0.254 | 0.329 | 0.262 | 0.303 | 0.324 | 0.898 | 0.916 | 0.922 | 0.849 | 0.344
3 | NCI-H1944 | 0.768 | 0.868 | 0.707 | 0.792 | 0.721 | 0.401 | 0.364 | 0.404 | 0.406 | 0.217 | 0.204 | 0.199 | 0.224 | 1.07 | 0.916 | 1.2 | 1.27 | 0.214
4 | NCI-H1975 | 0.746 | 0.894 | 0.847 | 0.864 | 1.18 | 0.717 | 0.756 | 0.767 | 0.189 | 0.305 | 0.367 | 0.297 | 0.325 | 0.941 | 1.03 | 0.995 | 0.633 | 0.415
5 | NCI-H1993 | 0.786 | 0.846 | 0.72 | 0.746 | 0.891 | 0.765 | 1.01 | 0.79 | 0.465 | 0.478 | 0.58 | 0.644 | 0.662 | 1.01 | 0.825 | 0.703 | 0.552 | 0.636
6 | NCI-H2009 | 0.141 | 0.865 | 0.884 | 0.695 | 0.93 | 0.66 | 0.673 | 0.582 | 0.337 | 0.29 | 0.252 | 0.326 | 0.26 | 1.02 | 0.992 | 0.725 | 0.0795 | 0.283
7 | NCI-H2023 | 0.0985 | 0.819 | 0.737 | 0.293 | 0.846 | 0.558 | 0.468 | 0.379 | 0.325 | 0.507 | 0.634 |  | 0.613 | 0.719 | 0.734 | 0.717 | 0.361 | 0.428
8 | NCI-H2085 | 0.733 | 0.769 | 0.851 | 0.809 | 0.742 | 0.737 | 0.755 | 0.805 | 0.516 | 0.237 | 0.253 | 0.231 | 0.236 | 0.698 | 0.767 | 0.77 | 0.477 | 0.282
9 | NCI-H2087 | 0.665 | 0.906 | 1 | 1.09 | 0.935 | 0.547 | 0.589 | 0.586 | 0.49 | 0.699 | 0.863 | 0.626 | 0.979 | 0.914 | 0.71 | 0.883 | 0.648 | 
10 | NCI-H2126 | 0.704 | 0.705 | 0.744 | 0.801 | 0.863 | 0.884 | 0.921 | 0.935 | 0.946 | 0.603 | 0.655 |  | 0.625 | 0.988 | 0.967 | 1.07 | 1.04 | 0.454
11 | NCI-H2170 | 0.257 | 0.273 | 0.253 | 0.262 | 0.272 | 0.605 | 0.583 | 0.668 | 0.62 | 0.422 | 0.591 | 0.625 | 0.497 | 1.13 | 1.18 | 1.24 | 1.18 | 0.721
12 | NCI-H2228 | 1.11 | 1.1 | 1.47 | 0.764 | 1 | 0.67 | 0.597 | 0.809 | 0.581 | 0.413 | 0.597 | 0.494 | 0.509 | 0.527 | 0.445 | 0.368 | 0.563 | 0.608
13 | NCI-H2347 | 0.604 | 0.923 | 0.94 | 1.03 | 1.1 | 0.536 | 0.489 | 0.618 | 0.498 | 0.298 | 0.296 | 0.376 | 0.304 | 0.683 | 0.644 | 0.561 | 0.633 | 0.3
14 | NCI-H2405 | 1.11 | 1.16 | 0.969 | 0.934 | 1.3 | 0.753 | 0.771 | 0.637 | 0.397 | 0.198 | 0.216 | 0.202 | 0.244 | 0.8 | 0.82 | 0.831 | 0.644 | 0.266
15 | NCI-H3122 | 1.08 | 0.903 | 1.04 | 1.05 | 1.04 | 0.623 | 0.74 | 0.679 | 0.627 | 0.565 | 1 | 0.721 | 0.838 | 0.269 | 0.239 | 0.257 | 0.272 | 0.92
16 | PC-3 [JPC-3] | 0.416 | 0.472 | 0.471 | 0.481 | 0.415 | 1.12 | 1.19 | 1.1 | 0.796 | 0.967 | 1.09 | 1.01 | 1.03 | 0.939 | 1.04 | 1.06 | 1.1 | 0.925
17 | PC-14 | 0.271 | 0.322 | 0.306 | 0.333 | 0.337 | 0.292 | 0.205 | 0.281 | 0.155 | 0.238 | 0.321 |  | 0.254 | 0.948 | 0.931 | 1.04 | 0.818 | 0.262
18 | RERF-LC-KJ | 0.883 | 0.766 | 0.864 | 0.864 | 0.777 | 0.825 | 0.801 | 0.95 | 0.858 | 0.755 | 0.794 | 0.414 | 0.681 | 0.775 | 0.761 | 0.868 | 0.766 | 0.765
19 | SK-LU-1 | 0.704 | 0.867 | 1.3 | 0.774 | 0.725 | 0.422 | 0.442 | 0.516 | 0.327 | 0.169 | 0.204 | 0.183 | 0.232 | 0.871 | 0.931 | 1.11 | 0.805 | 0.178
20 | SK-MES-1 | 0.464 | 0.428 | 0.421 | 0.428 | 0.442 | 0.707 | 0.574 | 0.258 | 0.189 | 0.354 | 0.404 |  | 0.273 | 1.01 | 0.963 | 1.07 | 0.85 | 0.337
21 | SW 1573 | 1.03 | 1.09 | 1.24 | 1.01 | 1.21 | 0.5 | 0.409 | 0.21 | 0.0835 | 0.481 | 0.561 |  | 0.76 | 0.767 | 0.877 | 0.902 | 0.581 | 0.417
22 | UMC-11 | 0.499 | 0.945 | 1.14 | 0.889 | 1.02 | 0.389 | 0.374 | 0.595 | 0.386 | 0.386 | 0.487 | 0.434 | 0.454 | 0.525 | 0.602 | 0.684 | 0.505 | 

Source: the supplement of paper PMC10307832
